# Assay results from patent US11944615B2, “Combination therapy for treatment of LKB1 deficient cancers” (New York University, priority 2020, dated 2024).
# How the values were obtained:
# KL allograft tumor = assay: KL subcutaneous allograft tumor growth in syngeneic wild-type mice; assay type: in vivo; details: KL allograft implanted subcutaneously in right flank, single agent, I.P. 5 days/week
# Source text: FIG. 6. NAMPT inhibition reduced KL lung tumor growth in vivo. A) Lung tumor volume measurements of KL subcutaneous allograft tumors following treatment with indicated drugs. B) Average tumor volumes over time in KL tumors with indicated treatments. Arrow denotes treatment start time. C) Percent change in KL tumor volume after 6 days of treatment with indicated drugs. D) Images of subcutaneous KL tumor allografts at endpoint of treatment experiment. *P<0.05.
# All animal experiments were reviewed and approved by the Institutional Animal Care and Use Committee (IACUC) at NYU Langone Health. For lung tumor growth assays, 10^6 KP and KL syngeneic mouse lung cancer cells were implanted into male C57BL/6 mice at 7 weeks of age via tail vein injection. After 8 weeks, mice were imaged by Mill to assess tumor volume. For drug treatment experiments, 10^6 KLA cells were injected subcutaneously in the right flank of female C57BL/6 mice at 7 weeks of age or injected via tail vein injection. […] Tumor volumes were measured using digital calipers or Mill. Mouse weights were measured weekly to adjust total dosage and assess the effects of drug combinations on mouse health. […]
# PD-L1 = assay: Western blot of PD-L1 in KP cells with SIK or LKB1 knockout treated with NAM; assay type: cell-based, mouse
# Protocol: A) Western blot of indicated proteins in KL or KP cells with SIK or LKB1 knockout and treated with NAM or NAD^+ for 6 days.
# Lung cancer cell lines were cultured in RPMI 1640 (Gibco, Thermo Fisher Scientific) supplemented with 10% fetal bovine serum (FBS, Gibco). The KPC Kras^LA1-G12D p53^−/− (KP) and KLA Kras^LA1-G12D;Lkb1^−/− (KL) murine lung cancer cell lines were generated by dissociation of KP and KL lung tumor nodules to single cell suspensions, seeded on tissue culture plates, and cultured in RPMI 1640 (Gibco, Thermo Fisher Scientific) supplemented with 10% fetal bovine serum (FBS, Gibco). […] All cells were cultured at 37° C. in a humidified incubator at 5% CO2 and verified on a weekly basis to be mycoplasma negative.
SMILES,tumor growth (KL allograft tumor),"PD-L1 levels (PD-L1; KP cells with SIK or LKB1 KO, NAM treatment for 6 days)","PD-L1 levels (PD-L1; KP cells with wild-type SIK or LKB1, NAM treatment)"
O=C(/C=C/c1cccnc1)NCCCCC1CCN(C(=O)c2ccccc2)CC1 [FK866],reduced lung tumor growth only after 6 days of treatment,,
"NC(=O)c1cccnc1 [NAM, nicotinamide]",,marked reduction in PD-L1 levels,no effect on PD-L1 levels
